Reference: patent US20170305936A1, “SOLID STATE FORMS OF CRISABOROLE” (Pliva Hrvatska d.o.o., priority 2016, published 2017)

Assays:
Format in all cases: physicochemical
[1] = Hygroscopicity (water absorption, European Pharmacopoeia 7.0, chapter 01/2008:51100); conditions: non-hygroscopic = less than 0.2% (w/w) water absorption after 24 h exposure to 25° C./80% RH
Protocol: As used herein the term non-hygroscopic in relation to crystalline Crisaborole refers to less than 0.2% (w/w) of water absorption after 24 h exposure to 25° C./80% RH, determined according to European Pharmacopoeia 7.0, chapter 01/2008:51100. Water can be for example atmospheric water.

[2] = Solubility in solvents
[3] = Mechanical stability (stress, re-analysis by PXRD)
Protocol: Sample after being powdered in a mortar and pestle is applied directly on a silicon plate holder. The X-ray powder diffraction pattern was measured with Philips X'Pert PRO X-ray powder diffractometer, equipped with Cu irradiation source=1.54184 Å (Angstrom), X'Celerator (2.022° 2θ) detector. Scanning parameters: angle range: 3-40 deg., step size 0.0167, time per step 37 s, continuous scan.

[4] = Thermodynamic (polymorphic) stability on storage, re-analysis by PXRD; conditions: for thermodynamic stability (conversion to any other solid state form, by XRPD): up to 50° C./80% RH
Protocol: Thermodynamic stability in relation to crystalline Crisaborole form I refers to less than 20%, 10%, 5%, 2%, 1%, or 0.5% conversion of crystalline Crisaborole form Ito any other solid state form of Crisaborole after exposure of form Ito conditions of up to 50° C./80% RH, e.g. 2-8° C., 25° C./60% RH, 40° C./75% RH for at least 1 month, as measured by XRPD. In some embodiments, the conversion is 1%-20%, 1%-10% or 1%-5%. […] Thermodynamic stability in relation to crystalline Crisaborole form II refers to less than 20%, 10%, 5%, 2%, 1%, or 0.5% conversion of crystalline Crisaborole form II to any other solid state form of Crisaborole after exposure of form II to conditions of up to 50° C./80% RH, e.g. 25° C./60% RH, 40° C./75% RH for at least 2 months, as measured by XRPD. In some embodiments, the conversion is 1%-20%, 1%-10% or 1%-5%. Sample after being powdered in a mortar and pestle is applied directly on a silicon plate holder. The X-ray powder diffraction pattern was measured with Philips X'Pert PRO X-ray powder diffractometer, equipped with Cu irradiation source=1.54184 Å (Angstrom), X'Celerator (2.022° 2θ) detector. Scanning parameters: angle range: 3-40 deg., step size 0.0167, time per step 37 s, continuous scan. Samples of Crisaborole form I were stored for 2 weeks at 25° C. 2-8° C., and for 1 month at different stress conditions: 25° C./60% RH, 40° C./75% RH, 50° C. and 50° C./80% RH.

[5] = Chemical stability on storage (impurity profile, HPLC)
Protocol: HPLC analysis was performed on instrument Agilent 1290, with experimental conditions being set as follows: Samples of Crisaborole form I were stored for 2 weeks at 25° C. 2-8° C., and for 1 month at different stress conditions: 25° C./60% RH, 40° C./75% RH, 50° C. and 50° C./80% RH.

[6] = Stability at high humidity levels
Protocol: Moreover, Form I is stable at high humidity levels (e.g. room temperature at 100% RH for 5-7 days), including after milling procedure (e.g. feeding pressure: 6.5 bar; grinding pressure: 6 bar; rotation speed: 300 rpm).

N#Cc1ccc(Oc2ccc3c(c2)COB3O)cc1 [Crisaborole form I, 5-(4-Cyanophenoxy)-1,3-dihydro-1-hydroxy-2,1-benzoxaborole]
hygroscopicity [1]: non-hygroscopic
solubility in N,N-dimethylformamide ([2]; N,N-dimethylformamide): very soluble
solubility in ethanol ([2]; ethanol): freely soluble
solubility in isopropanol ([2]; isopropanol): freely soluble
solubility in propylene glycol ([2]; propylene glycol): freely soluble
mechanical stability, PXRD after stress ([3]; pressure of 9 tons on 132.67 mm^2 for 2 min): unchanged
mechanical stability, PXRD after stress ([3]; pressure of 9 tons on 132.67 mm^2 for 2 min, listed as Form I): resistant to mechanical stress
mechanical stability, PXRD after stress ([3]; strong grinding using mortar and pestle for 2 min): unchanged
mechanical stability, PXRD after stress ([3]; strong grinding using mortar and pestle for 2 min, listed as Form I): resistant to mechanical stress
mechanical stability, PXRD after stress ([3]; strong grinding with a drop of solvent (e.g. H2O, EtOH) using mortar and pestle for 2 min): unchanged
mechanical stability, PXRD after stress ([3]; strong grinding with a drop of solvent (e.g. H2O, EtOH) using mortar and pestle for 2 min, listed as Form I): resistant to mechanical stress
PXRD after storage ([4]; 1 month at 25° C./60% RH): unchanged
PXRD after storage ([4]; 1 month at 40° C./75% RH): unchanged
PXRD after storage ([4]; 1 month at 50° C.): unchanged
PXRD after storage ([4]; 1 month at 50° C./80% RH): unchanged
PXRD after storage ([4]; 2 weeks at 2-8° C.): unchanged
PXRD after storage ([4]; 2 weeks at 25° C.): unchanged
thermodynamic stability (conversion to any other solid state form, by XRPD) ([4]; e.g. 2-8° C., 25° C./60% RH, 40° C./75% RH for at least 1 month): good thermodynamic stability
thermodynamic stability (conversion to any other solid state form, by XRPD) ([4]; e.g. 2-8° C., 25° C./60% RH, 40° C./75% RH for at least 1 month, listed as Crystalline form I of Crisaborole): thermodynamically stable
chemical stability [5]: chemically stable
impurity profile after storage ([5]; 1 month at 25° C./60% RH): no change in impurity profile
impurity profile after storage ([5]; 1 month at 40° C./75% RH): no change in impurity profile
impurity profile after storage ([5]; 1 month at 50° C.): no change in impurity profile
impurity profile after storage ([5]; 1 month at 50° C./80% RH): no change in impurity profile
impurity profile after storage ([5]; 2 weeks at 2-8° C.): no change in impurity profile
impurity profile after storage ([5]; 2 weeks at 25° C.): no change in impurity profile
stability at high humidity levels after milling procedure ([6]; after milling (feeding pressure 6.5 bar; grinding pressure 6 bar; rotation speed 300 rpm)): stable
stability at high humidity levels ([6]; room temperature at 100% RH for 5-7 days): stable

N#Cc1ccc(Oc2ccc3c(c2)COB3O)cc1 [Crisaborole form II, 5-(4-Cyanophenoxy)-1,3-dihydro-1-hydroxy-2,1-benzoxaborole]
thermodynamic stability (conversion to any other solid state form, by XRPD) ([4]; e.g. 25° C./60% RH, 40° C./75% RH for at least 2 months): good thermodynamic stability
thermodynamic stability (conversion to any other solid state form, by XRPD) ([4]; e.g. 25° C./60% RH, 40° C./75% RH for at least 2 months, listed as Crystalline form II of Crisaborole): thermodynamically stable
stability to polymorphic conversions under high humidity ([6]; high humidity): stable
